Patent publication US11008555B2 (The Regents of the University of California, priority 2015, dated 2021)

What follows are compounds tested on chromosomal GFP (assay: CRISPRi GFP repression assay in E. coli). Conditions: ligand dose response on arC9:231, SOB media, normalized to vector control.
Type: cell-based, Escherichia coli MG1655
From the text: Escherichia coli MG1655, which have chromosomally integrated constitutive GFP and RFP expression, were used for in vivo screening, fluorescence measurements, and transformation assays. Cell transformation, plasmid maintenance, and verification of transformation were done as previously described using AmpR and CmR as selectable markers. EZ-rich defined growth medium (EZ-RDM, Teknoka) was used for in vivo fluorescence assays unless otherwise noted. Super optimal broth (S.O.B) medium was used for library outgrowth and screening. The arC9 ligands used (4-hydroxytamoxifen (4-HT), nafoxidine, beta-estradiol, and diethylstilbestrol) were all ordered from Sigma and resuspended in dimethyl sulfoxide (DMSO).
For individual PDZ-construct testing, colonies were cultured from plates, PDZ-dCas9 plasmid DNA recovered, separated from the RFP guide plasmid (pgRNA-bacteria Addgene ID: 44251) via restriction digestion with BsaI and co-transformed with a guide plasmid to repress chromosomal GFP. GFP repression for each construct was then tested in triplicate in a 96-well microplate reader (Tecan M1000) at 37° C. PDZ clones were grown with appropriate antibiotics, 0.2 nM aTc, dCas9, and inducer. OD600 nm absorbance was measured for each well. GFP signal was measured, normalized for OD600 nm and compared when the cultures were approaching saturation (80% of the maximum OD600 nm) The arC9 construct was treated and assayed in the same fashion as above with induction using […]. Fold changes for the effect of different ligands were calculated by normalizing the GFP/OD600 of the arC9 construct to that of a vector control and dividing the fluorescent values without ligand by the fluorescent values with ligand treatment. For single cell analysis of arC9, cells were grown for ˜6 hours with antibiotics and inducer, washed with PBS, and assayed for GFP fluorescence using a Sony SH800 cell sorter.
For 4-hydroxytamoxifen [4-HT], the “effect of ligand on arC9:231 CRISPRi-based GFP repression” value (from here on “effect of ligand”) was “increased”. With `C[C@]12CC[C@@H]3c4ccc(O)cc4CC[C@H]3[C@@H]1CC[C@@H]2O` [beta-estradiol] the “effect of ligand” value was “increased only with ligands that encourage the ER-LBD to enter an antagonist conformation”. With `CC/C(=C(/CC)c1ccc(O)cc1)c1ccc(O)cc1` [diethylstilbestrol] the “effect of ligand” value was “increased only with ligands that encourage the ER-LBD to enter an antagonist conformation”. `COc1ccc2c(c1)CCC(c1ccccc1)=C2c1ccc(OCCN2CCCC2)cc1` [nafoxidine] was tested, and the “effect of ligand” value was “increased”.
